Drawing on US10336697B2, “Spiro[cyclobutane-1,3′-indolin]-2′-one derivatives as bromodomain inhibitors” (Orion Corporation, priority 2015, dated 2019), this text covers IC50 for 24 compounds.

A word on the IC50: it is the concentration that inhibits the measured activity by half.

This assay concerns the target Bet BRD4 full length bromo-domain protein (Homo sapiens, UniProt O60885). The experiment in a line: Bet bromodomain TR-FRET assay (displacement of acetyl histone peptide). It counts as binding. Particulars: Bet BRD4 full length bromodomain protein, 300 nM acetyl histone peptide substrate, read-out: IC50. In general terms: Time-resolved FRET reads energy transfer from a long-lived donor to a nearby acceptor.

Take `CN1CCC(NC(=O)c2cc(NS(=O)(=O)c3ccc(Cl)cc3F)cc3c2NC(=O)C32CCC2)CC1` [Compound-211, 5′-((4-Chloro-2-fluorophenyl)sulfonamido)-N-(1-methylpiperidin-4-yl)-2′-oxospiro[cyclobutane-1,3′-indoline]-7′-carboxamide]: the IC50 lay within 600 to 1000 nM. For `O=C1Nc2c(Oc3cc[nH]c(=O)c3)cc(NS(=O)(=O)c3ccc(Cl)cc3F)cc2C12CCC2` [Compound-212, 4-Chloro-2-fluoro-N-(2′-oxo-7′-((2-oxo-1,2-dihydropyridin-4-yl)oxy)spiro[cyclobutane-1,3′-indolin]-5′-yl)benzenesulfonamide], the IC50 was less than 600 nM. `COc1ccccc1S(=O)(=O)Nc1cc(OC2CCN(C)CC2)c2c(c1Cl)C1(CCC1)C(=O)N2` [Compound-215, N-(4′-chloro-7′-((1-methylpiperidin-4-yl)oxy)-2′-oxospiro-[cyclobutane-1,3′-indolin]-5′-yl)-2-methoxybenzenesulfonamide]: the IC50 was 600 to 1000 nM. Then `COc1ccccc1S(=O)(=O)Nc1cc(B(O)O)c2c(c1)C1(CCC1)C(=O)N2` [Compound-217, (5′-((2-Methoxyphenyl)sulfonamido)-2′oxospiro[cyclobutane-1,3′-indolin]-7′-yl)boronic acid], with more than 1000 nM; and `COc1ccccc1S(=O)(=O)Nc1cc(OC2CCN(C(C)=O)CC2)c2c(c1)C1(CCC1)C(=O)N2` [Compound-220], with less than 600 nM; and `O=C(Nc1cc(Br)c2c(c1)C1(CCC1)C(=O)N2)c1cccnc1N1CCOCC1` [Compound-222, N-(7′-bromo-2′-oxospiro[cyclobutane-1,3′-indolin]-5′-yl)-2-morpholinonicotinamide], with more than 1000 nM. Then `O=C(Nc1cc(C2CC2)c2c(c1)C1(CCC1)C(=O)N2)c1cccnc1N1CCOCC1` [Compound-223, N-(7′-cyclopropyl-2′oxospiro[cyclobutane-1,3′-indolin]-5′-yl)-2-morpholinonicotinamide], with more than 1000 nM; and `CN1CCC(Oc2cc(NS(=O)(=O)c3ccccc3F)cc3c2NC(=O)C32CCC2)CC1` [compound 128], with less than 600 nM. For the compound `CCN(c1cc(OC2CCN(C)CC2)c2c(c1)C1(CCC1)C(=O)N2)S(=O)(=O)c1ccccc1OC` [compound 179, N-ethyl-2-methoxy-N-(7′-((1-methylpiperidin-4-yl)oxy)-2′-oxospiro[cyclobutane-1,3′-indolin]-5′-yl)benzenesulfonamide], the IC50 is more than 1000 nM.

For `CN1CCC(Oc2cc(N(C)S(=O)(=O)c3ccc(F)cc3F)cc3c2NC(=O)C32CCC2)CC1` [compound 180, 2,4-Difluoro-N-methyl-N-(7′-((1-methylpiperidin-4-yl)oxy)-2′-oxospiro[cyclobutane-1,3′-indolin]-5′-yl)benzenesulfonamide], the IC50 was less than 600 nM.

Turning to `COc1cccc(OC)c1S(=O)(=O)Nc1cc(OC2CCN(C)CC2)c2c(c1)C1(CCC1)C(=O)N2` [compound 186, 2,6-Dimethoxy-N-(7′-((1-methylpiperidin-4-yl)oxy)-2′-oxospiro[cyclobutane-1,3′-indolin]-5′-yl)benzenesulfonamide], the IC50 was more than 1000 nM. Then `COc1ccc(S(=O)(=O)Nc2cc(OC3CCN(C)CC3)c3c(c2)C2(CCC2)C(=O)N3)c(OC)c1` [compound 187, 2,4-Dimethoxy-N-(7′-((1-methylpiperidin-4-yl)oxy)-2′-oxospiro[cyclobutane-1,3′-indolin]-5′-yl)benzenesulfonamide], with less than 600 nM. For `COc1cc(Cl)ccc1S(=O)(=O)Nc1cc(OC2CCN(C)CC2)c2c(c1)C1(CCC1)C(=O)N2` [compound 188, 4-Chloro-2-methoxy-N-(7′-((1-methylpiperidin-4-yl)oxy)-2′-oxospiro[cyclobutane-1,3′-indolin]-5′-yl)benzenesulfonamide], the IC50 was less than 600 nM. Then `CN1CCOC(COc2cc(NS(=O)(=O)c3ccc(Cl)cc3F)cc3c2NC(=O)C32CCC2)C1` (stereo not drawn) [compound 194, 4-Chloro-2-fluoro-N-(7′-((4-methylmorpholin-2-yl)methoxy)-2′-oxospiro[cyclobutane-1,3′-indolin]-5′-yl)benzenesulfonamide], with less than 600 nM; and `CC1CC(Oc2cc(NS(=O)(=O)c3ccc(Cl)cc3F)cc3c2NC(=O)C32CCC2)CC(C)N1C` (stereo not drawn) [compound 195, 4-Chloro-2-fluoro-N-(2′-oxo-7′-((1,2,6-trimethylpiperidin-4-yl)oxy)spiro[cyclobutane-1,3′-indolin]-5′-yl)benzenesulfonamide], with less than 600 nM.

Turning to `CCN(C)CCOc1cc(NS(=O)(=O)c2ccccc2OC)cc2c1NC(=O)C21CCC1` [compound 196, N-(7′-(2-(ethyl(methyl)amino)ethoxy)-2′-oxospiro[cyclobutane-1,3′-indolin]-5′-yl)-2-methoxybenzenesulfonamide], the IC50 is less than 600 nM.

Regarding `O=C1Nc2c(OC3CCNCC3F)cc(NS(=O)(=O)c3ccc(Cl)cc3F)cc2C12CCC2` (stereo not drawn) [compound 198, 4-Chloro-2-fluoro-N-(7′-((3-fluoropiperidin-4-yl)oxy)-2′-oxospiro[cyclobutane-1,3′-indolin]-5′-yl)benzenesulfonamide], the IC50 is less than 600 nM. With `COc1ccccc1S(=O)(=O)Nc1cc(OC2CCNCC2)c2c(c1)C1(CCC1)C(=O)N2` [compound 199, 2-Methoxy-N-(2′-oxo-7′-(piperidin-4-yloxy)spiro[cyclobutane-1,3′-indolin]-5′-yl)benzenesulfonamide] the figure was less than 600 nM; with `O=C1Nc2c(OC3CCCNC3)cc(NS(=O)(=O)c3ccc(Cl)cc3F)cc2C12CCC2` (stereo not drawn) [compound 200, 4-Chloro-2-fluoro-N-(2′-oxo-7′-(piperidin-3-yloxy)spiro[cyclobutane-1,3′-indolin]-5′-yl)benzenesulfonamide], less than 600 nM; with `CC1CC(Oc2cc(NS(=O)(=O)c3ccc(Cl)cc3F)cc3c2NC(=O)C32CCC2)CC(C)N1` (stereo not drawn) [compound 201, 4-Chloro-N-(7′-((2,6-dimethylpiperidin-4-yl)oxy)-2′-oxospiro[cyclobutane-1,3′-indolin]-5′-yl)-2-fluorobenzenesulfonamide], less than 600 nM. Then `O=C1Nc2c(OCC3CNCCO3)cc(NS(=O)(=O)c3ccc(Cl)cc3F)cc2C12CCC2` (stereo not drawn) [compound 202, 4-Chloro-2-fluoro-N-(7′-(morpholin-2-ylmethoxy)-2′-oxospiro[cyclobutane-1,3′-indolin]-5′-yl)benzenesulfonamide], with less than 600 nM; and `CNCCOc1cc(NS(=O)(=O)c2ccccc2OC)cc2c1NC(=O)C21CCC1` [compound 204, 2-Methoxy-N-(7′-(2-(methylamino)ethoxy)-2′-oxospiro[cyclobutane-1,3′-indolin]-5′-yl)benzenesulfonamide], with less than 600 nM; and `CCNCCOc1cc(NS(=O)(=O)c2ccccc2OC)cc2c1NC(=O)C21CCC1` [compound 205, N-(7′-(2-(ethylamino)ethoxy)-2′-oxospiro[cyclobutane-1,3′-indolin]-5′-yl)-2-methoxybenzenesulfonamide], with less than 600 nM.

Turning to `COc1ccccc1S(=O)(=O)Nc1cc(OCCNC2CC2)c2c(c1)C1(CCC1)C(=O)N2` [compound 206, N-(7′-(2-(cyclopropylamino)ethoxy)-2′-oxospiro[cyclobutane-1,3′-indolin]-5′-yl)-2-methoxybenzenesulfonamide], the IC50 is less than 600 nM.
